# Reference: patent US20240164267A1, “GENETIC MECHANISM TO ENHANCE HEALTHY STEROLS AND HARD ENDOSPERM IN SEEDS” (Iowa State University Research Foundation, Inc., priority 2022, published 2024)
# Tests used:
# [1] = tested on: ZmHMGR mRNA; experiment: Exogenous sterol feeding of maize seedlings, relative mRNA quantification of ZmHMGR; assay type: in vivo; conditions: for ZmHMGR mRNA: wild type W22 roots
# [2] = tested on: ZmSMT2 mRNA; experiment: Exogenous sterol feeding of maize seedlings, relative mRNA quantification of ZmSMT2; assay type: in vivo; conditions: for ZmSMT2 mRNA: wild type W22 roots
# Description: FIG. 6C-D show relative mRNA quantification of ZmHMGR and ZmSMT2 genes in Zmcyp710a8-1 background in response to various sterols (10 μM) for 4 hours in roots (FIG. 6C) and in shoots (FIG. 6D). ZmACTIN served as the reference gene for normalization. Data are means±SD. Asterisks indicate statistical significance by Students t-test compared to 0 h in FIG. 6A and to Mock in FIG. 6B, FIG. 6C, and FIG. 6D. *P<0.05 **P<0.01 ***P<0.001; ns, not significant.
# [3] = tested on: Zmcyp710a8-1 mutant root metabolites; experiment: Exogenous stigmasterol feeding of Zmcyp710a8-1 mutant, metabolite levels in root tissue (GC/MS); assay type: in vivo, maize; conditions: root tissue of Zmcyp710a8-1 null mutant with exogenous stigmasterol feeding, compared with W22
# Source text: Relative metabolite levels in the two maize mutants compared to their wild type are shown as fold changes in Root and Shoot. […] Asterisks indicate statistical significance by Students t-test compared to Zmcyp710a8-1. *P<0.05 **P<0.01 ***P<0.001.
# To identify cellular metabolites influenced by stigmasterol, non-targeted GC/MS metabolite analysis of roots and shoots of maize Zmcyp710a8 and wild type was used. A total of 29 molecular features (13 known and 16 unknown molecular features) were identified in roots and 31 features (17 known and 14 unknown molecular features) in shoots (FIG. 7). The concentration of molecular features correlated with stigmasterol content among genotypes in maize and the features belonged to similar classes including sterol, amino acid, primary metabolism, and unknown features in roots and shoots (FIG. 7).
# Since changes in metabolites among the genotypes correlated with stigmasterol content, it was reasoned that exogenous stigmasterol may reverse the metabolite levels in Zmcyp710a8-1 mutant to wild type levels.
# [4] = roots and shoots of Zmcyp710a8-1, 10 μM sterol, 4 hours
# [5] = 10 μM sterol feeding, after 4 and 8 h
SMILES,"ZmHMGR mRNA levels [1, 4]","ZmHMGR mRNA [1, 5]","ZmHMGR mRNA ([1]; 10 μM stigmasterol, after 8 h)","ZmSMT2 mRNA levels [2, 4]","ZmSMT2 mRNA [2, 5]","ZmSMT2 mRNA ([2]; 10 μM stigmasterol, after 8 h)","levels of selected metabolites (sitosterol, campesterol, myo-inositol) [3]"
CC[C@H](/C=C/[C@@H](C)[C@H]1CC[C@H]2[C@@H]3CC=C4C[C@@H](O)CC[C@]4(C)[C@H]3CC[C@]12C)C(C)C [stigmasterol],higher,induction,remained elevated,higher,induction,slightly decreased,"shifted the levels of sitosterol, campesterol, and myo-inositol toward W22 levels"
CC[C@H](CC[C@@H](C)[C@H]1CC[C@H]2[C@@H]3CC=C4C[C@@H](O)CC[C@]4(C)[C@H]3CC[C@]12C)C(C)C [sitosterol],,did not have a significant impact,,,did not have a significant impact,,
